Article PMC11284088, “Synthesis and biochemical characterization of naphthoquinone derivatives targeting bacterial histidine kinases” (The Journal of Antibiotics, 2024)
Entries after “also recorded” stand apart in the source; their conditions may differ. Like-named read-outs stand apart in the source and are kept apart here.

What was measured:
WalK = target: T1, WalK (Bacillus subtilis, UniProt Q45614); test: Inhibition of WalK autophosphorylation; type: biochemical; set-up: key to WalK: WalK + inhibitory effect against WalK; conditions: for IC50: against WalK from B. subtilis, autophosphorylation, N.I. = no inhibition; for inhibitory activity against WalK: in words; for WalK: summary class
T1 construct: His6 (N); made in house; host or cells: E. coli BL21(DE3)
Procedure: Autophosphorylation of WalK was conducted at 0.5 or 1 µM in a reaction mixture comprising 50 mM Tris-HCl (pH 8.5), 100 mM KCl, 5 mM MgCl2, 100 mM NH4Cl, 5% DMSO, and 40 µM ATP. The total reaction volume was 40 µl, and the incubation lasted for 30 min at 25 °C. To terminate the reaction, 40 µl of 2 × SDS-PAGE sample buffer was added, followed by a 10-min incubation at 37 °C. Subsequently, SDS-PAGE (10% acrylamide) was performed, and the samples were subjected to Western blotting using a PVDF membrane (Bio-Rad 1620177). The primary antibody used was anti-N3-phosphohistidine antibody (clone SC56-2) (EDM Millipore Corp), and the secondary antibody was goat anti-rabbit IgG-HRP (Abcam). A 2% bovine serum albumin (Sigma-Aldrich) solution served as the blocking reagent. Signals originating from phosphorylated HKs were detected using the HRP substrate (Immobilon Western Chemiluminescent HRP substrate, Millipore) and the Multi Imager II Multi Box (Bio Tools). Signal intensities were quantified with Image Analysis Software CS Analyzer 4 (ATTO). IC50 values (50% inhibitory concentrations) were determined using Prism 7 software (GraphPad).
In the assessment of naphthoquinone derivatives, the initial screening for inhibitory activity against WalK autophosphorylation was conducted at 50 or 100 µg ml^−1. Compounds displaying inhibitory activity were further examined to ascertain their IC50 values against WalK. For the chosen compounds, inhibition against EvgS, EnvZ, PhoQ, and CpxA HKs was also assessed. These reactions involved the use of 1 µM HK, 40 µM ATP, and a 30 min incubation at 25 °C.

B. subtilis 168 strain = test: MIC, standard microtiter broth dilution; type: cell-based, Bacillus subtilis; set-up: key to MIC: MIC + antibacterial activity against Bacillus subtilis 168; conditions: for antibacterial (antimicrobial) activity against B. subtilis: in words
Procedure: The minimum inhibitory concentrations (MICs) were determined using the standard microtiter broth dilution method, as recommended by the guidelines of the Clinical Laboratory Standards Institute.

iseA (formerly yoeB) = test: RT-qPCR of iseA expression in B. subtilis cells; type: cell-based, B. subtilis 168; set-up: key to RT-qPCR: RT-qPCR + iseA gene expression was induced in B. subtilis 168; − no effect; conditions: for RT-qPCR: summary class, iseA gene expression in B. subtilis 168
Procedure: In brief, the cells were aerated and grown to an optical density at 660 nm of 0.3–0.4 at 37 °C. After the addition of DMSO or naphthoquinone derivatives, the cultures were further incubated for 5 min, cooled on ice for 1 min, and then harvested by centrifugation (2300 × g, 10 min, 4 °C). The cells were resuspended in 800 µl of RNA Lysis Buffer (SV Total RNA Isolation System, Z3100, Promega), transferred to a screw-capped tube containing 400 mg of glass beads (GB-01, TOMY), and disrupted using MicroSmash (MS-100, TOMY Medico) at 3000 rpm, 60 s ON/OFF for 6 cycles. RNA was then purified from 175 µl of the supernatant using the SV Total RNA Isolation System, followed by DNase I treatment (Turbo DNA-free^TM Kit, AM1907, Invitrogen) to remove any residual genomic DNA contamination. […] The expression levels of the genes were normalized using the 16S rRNA gene as an internal standard. Each assay was performed at least three times. Statistical analyses were conducted using Tukey’s multiple comparison test (GraphPad Prism 7).

[1] = target: T2, WalK (207-611, B. subtilis) (Bacillus subtilis, UniProt Q45614); test: Affinity selection/mass spectrometry, competition with waldiomycin; type: binding; set-up: key to AS/MS: AS/MS + competitive inhibition of the binding of waldiomycin to WalK; − increased binding of waldiomycin to WalK
T2 construct: His6 (N); made in house; host or cells: E. coli BL21(DE3)
Procedure: The affinity selection/mass spectrometry (AS/MS) is a method which can detect the binding of small compounds to proteins. This experiment was carried out following a previously established protocol (Fig. 5), with the exception of using Millipore 96-well filter plates (MSBVN1210) instead of MAHAN4510. In the experiment, 1 µM of WalK (207-611, B. subtilis, refer to Table S2) was combined and incubated with 5 µM of waldiomycin and competitor compounds in a reaction buffer. The buffer composition was as follows: 25 mM Tris-HCl (pH 8.0), 50 mM KCl, 50 mM NH4Cl, 5 mM MgCl2, 1 mM DTT, and 0.1% CHAPS. Following the incubation, the mixture was subjected to size-exclusion chromatography via centrifugation to eliminate free compounds. The protein that was eluted was then denatured by adding an equal volume of methanol/0.1% formic acid. The compounds that were subsequently released from the protein were detected using an LC/MS system. The concentrations of waldiomycin were calculated from the value of peak areas using calibration curve that covered the range of 1 nM to 1 µM (R^2 = 0.9991). The concentration of waldiomycin in the eluate of WalK and waldiomycin without competitor was 10.1 nM, and percentages to this value were calculated for other samples.

[2] = B. subtilis 168 strain grown in LB broth at 37 °C for 18 h
[3] = Bacillus subtilis, B. subtilis 168 strain grown in LB broth at 37 °C for 18 h, read-out: MIC

T1 sequence (Q45614 207-611): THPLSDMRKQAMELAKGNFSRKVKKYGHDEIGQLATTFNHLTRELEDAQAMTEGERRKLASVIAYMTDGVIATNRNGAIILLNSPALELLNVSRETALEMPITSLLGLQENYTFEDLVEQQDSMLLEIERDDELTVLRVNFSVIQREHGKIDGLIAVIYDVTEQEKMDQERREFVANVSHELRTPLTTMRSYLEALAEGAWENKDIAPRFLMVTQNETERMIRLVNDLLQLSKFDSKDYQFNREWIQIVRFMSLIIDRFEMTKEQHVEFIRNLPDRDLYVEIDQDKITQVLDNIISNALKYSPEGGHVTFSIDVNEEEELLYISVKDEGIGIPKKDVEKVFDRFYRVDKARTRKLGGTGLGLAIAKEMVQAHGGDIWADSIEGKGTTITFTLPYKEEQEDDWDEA
T2 sequence (Q45614 207-611): as above

| SMILES | IC50 (WalK; read-out: IC50) [µM] | MIC (B. subtilis 168 strain; [2]) [µg/mL] | antibacterial (antimicrobial) activity against B. subtilis (B. subtilis 168 strain) | IC50 (WalK) | inhibitory activity against WalK (WalK) | other results |
| --- | --- | --- | --- | --- | --- | --- |
| O=C1C(N2CCNCC2)=C(Cl)C(=O)c2c1cccc2[N+](=O)[O-] [2d, 3-chloro-5-nitro-2-(piperazin-1-yl)naphthalene-1,4-dione] | 305 | 8 | equal to waldiomycin or even stronger |  |  |  |
| O=C1C(Cl)=C(N2CCNCC2)C(=O)c2ccccc21 [2c, 2-chloro-3-(piperazin-1-yl)naphthalene-1,4-dione] |  | 8 | equal to waldiomycin or even stronger | N.I. | did not show any inhibitory activity; also recorded: inactive |  |
| O=C1C(Cl)=C(Nc2ccc(Cl)c(O)c2)C(=O)c2c(O)ccc(O)c21 [2i, 2-chloro-3-((4-chloro-3-hydroxyphenyl)amino)-5,8-dihydroxynaphthalene-1,4-dione] |  |  | equal to waldiomycin or even stronger |  | did not show any inhibitory activity; also recorded: inactive | IC50 (WalK; listed as C00017): N.I.; MIC (B. subtilis 168 strain; B. subtilis 168 strain grown in LB broth at 37 °C for 18 h, listed as C00017): 4 µg/mL |
| O=C1C(N2CCNCC2)=CC(=O)c2c(O)cccc21 [2b, 5-hydroxy-2-(piperazin-1-yl)naphthalene-1,4-dione] | 48.4 | 8 | equal to waldiomycin or even stronger |  |  | WalK (WalK): +; MIC (B. subtilis 168 strain; summary class, Bacillus subtilis 168): +; expression of iseA (iseA (formerly yoeB); exponentially growing cells, subMIC or MIC levels, 5 min, relative to DMSO control): did not change; RT-qPCR (iseA (formerly yoeB)): −; increase of MS signal of the collected waldiomycin compared to only waldiomycin ([1]; compound 30 or 100 µM, waldiomycin 5 µM, WalK 1 µM): about twofold; binding to WalK competitive with that of waldiomycin ([1]; in words): not competitive; also recorded: enhanced the binding of waldiomycin to WalK; AS/MS ([1]; summary class, effect on binding of waldiomycin to WalK): − |
| O=C(O)c1cc(NC2=C(Cl)C(=O)c3c(cccc3[N+](=O)[O-])C2=O)ccc1O [2n, 5-((3-chloro-5-nitro-1,4-dioxo-1,4-dihydronaphthalen-2-yl)amino)-2-hydroxybenzoic acid] |  | 128 | no or a very weak antimicrobial activity | N.I. | did not show any inhibitory activity; also recorded: did not inhibit WalK |  |
| O=C1C(Cl)=C(NCCO)C(=O)c2c(O)ccc(O)c21 [2e, 2-chloro-5,8-dihydroxy-3-((2-hydroxyethyl)amino)naphthalene-1,4-dione] |  | 2 | equal to waldiomycin or even stronger | N.I. | did not show any inhibitory activity; also recorded: inactive |  |
| O=C1C(Nc2ccc(Cl)c(O)c2)=CC(=O)c2c(O)cccc21 [2j, 2-((4-chloro-3-hydroxyphenyl)amino)-5-hydroxynaphthalene-1,4-dione] | 75.1 |  | equal to waldiomycin or even stronger |  |  | MIC (B. subtilis 168 strain; [3]): 4 µg/mL |
| O=C1c2onc(-c3ccccc3)c2C(=O)c2c(O)ccc(O)c21 [3a, 5,8-dihydroxy-3-phenylnaphtho[2,3-d]isoxazole-4,9-dione] | 51 | 0.5 | equal to waldiomycin or even stronger |  |  |  |
| O=C1c2onc(-c3ccccc3)c2C(=O)c2cccc(O)c21 [3c, 8-hydroxy-3-phenylnaphtho[2,3-d]isoxazole-4,9-dione] |  |  | equal to waldiomycin or even stronger | N.I. | did not show any inhibitory activity | MIC (B. subtilis 168 strain; [3]): 0.5 µg/mL |
| O=C1C(Cl)=C(Nc2cccc(O)c2)C(=O)c2c(O)ccc(O)c21 [2g, 2-chloro-5,8-dihydroxy-3-((3-hydroxyphenyl)amino)naphthalene-1,4-dione] | 31.7 | 1 | equal to waldiomycin or even stronger |  |  |  |
| O=C1C(Cl)=C(NCCc2ccc(O)c(O)c2)C(=O)c2c(O)ccc(O)c21 [2f, 2-chloro-3-((3,4-dihydroxyphenethyl)amino)-5,8-dihydroxynaphthalene-1,4-dione] |  | 8 | equal to waldiomycin or even stronger | N.I. | did not show any inhibitory activity; also recorded: inactive |  |
| COc1ccc(NC2=C(Cl)C(=O)c3c(O)ccc(O)c3C2=O)cc1 [2k, 2-chloro-5,8-dihydroxy-3-((4-methoxyphenyl)amino)naphthalene-1,4-dione] |  | >128 | no or a very weak antimicrobial activity | N.I. | did not show any inhibitory activity; also recorded: noninhibitory; also recorded: did not inhibit WalK |  |
| O=C(O)c1cc(NC2=C(Cl)C(=O)c3c(O)ccc(O)c3C2=O)ccc1O [2m, 5-((3-chloro-5,8-dihydroxy-1,4-dioxo-1,4-dihydronaphthalen-2-yl)amino)-2-hydroxybenzoic acid] | 45 | 64 | weaker |  | weaker |  |
| O=C1C(Cl)=C(N2CCNCC2)C(=O)c2c(O)ccc(O)c21 [2a, 2-chloro-5,8-dihydroxy-3-(piperazin-1-yl)naphthalene-1,4-dione] | 32.4 |  |  |  | weaker | WalK (WalK): +; RT-qPCR (iseA (formerly yoeB)): +; effect on the signal of waldiomycin ([1]; compound 30 and 100 µM, in words): reduced the signal of waldiomycin in a dose-dependent manner; signal of waldiomycin compared to only waldiomycin with WalK ([1]; compound at 100 µM, waldiomycin 5 µM, WalK 1 µM): about 10%; binding to WalK competitive with that of waldiomycin ([1]; in words): competitive; also recorded: competitively interacted with waldiomycin |
